In DBAASP one finds MIC data, which are given here for five compounds.

Some test systems named below: Escherichia coli K-12; Klebsiella pneumoniae; Staphylococcus aureus.
Assay in all cases: ≥ marks a high value that may be exact or a test limit, other limits are often not marked, values filed in µg/mL are converted to µM
Experiment [1] concerns Bacillus cereus ATCC 11778.
For experiment [2], the system named is Escherichia coli ATCC 25922.
In experiment [3] the test system is Klebsiella pneumoniae ATCC 700603.
In experiment [4] the test system is Pseudomonas aeruginosa ATCC 27853.
Experiment [5] concerns Salmonella enterica subsp. enterica serovar Enteritidis ATCC 13076.
Experiment [6] has as its system Serratia marcescens ATCC 21202.
Experiment [7] concerns Staphylococcus aureus ATCC 29213.
Experiment [8] deals with Streptococcus pyogenes ATCC 19615.
The subject of experiment [9] is Candida albicans CPCC 400416.
For experiment [10], the system named is Escherichia coli CPCC 100521.
The test system of experiment [11] is Staphylococcus aureus CPCC 100520.
Experiment [12] deals with Pseudomonas aeruginosa PA-W14.
Experiment [13] concerns Pseudomonas aeruginosa PA-W1.
For experiment [14], the system named is Pseudomonas aeruginosa PAO1.
For experiment [15], the system named is Staphylococcus aureus NCTC 8325-4.
Experiment [16] deals with Alcaligenes faecalis ATCC 8750.
Experiment [17] has as its system Bacillus megaterium CICC 10448.
For experiment [18], the system named is Bacillus subtilis CICC 10034.
The subject of experiment [19] is Enterobacter cloacae CICC 21539.
Experiment [20] concerns Escherichia coli CGMCC 3373.
The subject of experiment [21] is Escherichia coli CICC 10293.
For experiment [22], the system named is Escherichia coli CICC 10300.
In experiment [23] the test system is Escherichia coli CICC 10302.
Experiment [24] relates to Listeria innocua CICC 10417.
For experiment [25], the system named is Pseudomonas aeruginosa CICC 21636.
In experiment [26] the test system is Salmonella enterica subsp. enterica serovar Paratyphi B CICC 10437.
Experiment [27] relates to Serratia marcescens ATCC 4112.
Experiment [28] has as its system Staphylococcus aureus CICC 10306.
In experiment [29] the test system is Staphylococcus aureus CICC 10384.
The subject of experiment [30] is Aspergillus niger ATCC 16404.
Experiment [31] relates to Candida albicans ATCC 10231.
In experiment [32] the test system is Candida glabrata ATCC 15126.
The subject of experiment [33] is Enterococcus faecalis PCM 2673.
The test system of experiment [34] is Escherichia coli ATCC 23506.
Experiment [35] deals with Pseudomonas aeruginosa ATCC 9027.
Experiment [36] has as its system Staphylococcus aureus ATCC 25923.
In experiment [37] the test system is Staphylococcus aureus ATCC 9144.
The subject of experiment [38] is Streptococcus pneumoniae ATCC 49619.

≈ marks a conversion by molar mass, not a printed value.

In the case of `CSCC[C@H](NC(=O)[C@H](CO)NC(=O)[C@H](CS)NC(=O)[C@@H](NC(=O)[C@H](CCC(=O)O)NC(=O)[C@H](CC(C)C)NC(=O)[C@H](CC(C)C)NC(=O)[C@@H]1CCCN1C(=O)[C@H](CC(C)C)NC(=O)[C@@H](N)C(C)C)[C@@H](C)O)C(=O)N[C@H](C(=O)N[C@@H](CS)C(=O)N[C@@H](Cc1c[nH]c2ccccc12)C(=O)N[C@@H](CCC(=O)O)C(=O)N[C@@H](CC(N)=O)C(=O)N[C@@H](CC(N)=O)C(=O)N[C@@H](CCC(N)=O)C(=O)N[C@H](C(=O)N[C@@H](Cc1ccccc1)C(=O)NCC(=O)N[C@@H](CCCCN)C(=O)O)[C@@H](C)O)[C@@H](C)O` [VLPLLETCSMTCWENNQTFGK], the MIC – broadly, the lowest concentration that inhibits growth of the organism – is not below 41.4 µM in experiment [1]; more than 41.4 µM in experiment [2]; more than 41.4 µM in experiment [3]; more than 41.4 µM in experiment [4]; not below 41.4 µM in experiment [5]; not below 41.4 µM in experiment [6]. In addition, the minimal inhibitory concentration (MIC) in experiment [7] is more than 41.4 µM; in experiment [8], not below 41.4 µM.
As to `CC[C@H](C)[C@H](N)C(=O)N[C@H](C(=O)NCC(=O)N1CCC[C@H]1C(=O)N[C@H](C(=O)N[C@@H](CC(C)C)C(=O)NCC(=O)N[C@@H](CC(C)C)C(=O)N[C@H](C(=O)NCC(=O)N[C@@H](CCCCN)C(=O)N[C@@H](C)C(=O)N[C@@H](CC(C)C)C(=O)NCC(=O)NCC(=O)N[C@@H](CC(C)C)C(=O)N[C@@H](CC(C)C)C(N)=O)[C@@H](C)CC)C(C)C)[C@@H](C)CC` [IIGPVLGLIGKALGGLL], the minimum inhibitory concentration (MIC) in experiment [9] was not below 160 µM; in [10] it was not below 639 µM; in [11], not below 160 µM.
For `NCCCC[C@H](NC(=O)[C@H](CCCCN)NC(=O)[C@H](Cc1c[nH]c2ccccc12)NC(=O)[C@H](Cc1c[nH]c2ccccc12)NC(=O)[C@H](CCCCN)NC(=O)[C@H](CCCCN)NC(=O)[C@H](Cc1c[nH]c2ccccc12)NC(=O)[C@H](Cc1c[nH]c2ccccc12)NC(=O)[C@H](CCCCN)NC(=O)[C@H](CCCCN)NC(=O)[C@@H](N)Cc1c[nH]c2ccccc12)C(=O)N[C@@H](Cc1c[nH]c2ccccc12)C(N)=O` [WKKWWKKWWKKW], the minimum inhibitory concentration (MIC) was 15.6 µM (≈ 29.7 µg/mL) in the experiment with Escherichia coli K-12; 15.6 µM (≈ 29.7 µg/mL) in the experiment with Klebsiella pneumoniae; 31.3 µM (≈ 59.6 µg/mL) in experiment [12]; 15.6 µM (≈ 29.7 µg/mL) in experiment [13]; 15.6 µM (≈ 29.7 µg/mL) in experiment [14]; 7.81 µM (≈ 14.9 µg/mL) in experiment [15]. This compound also gave a minimal inhibitory concentration (MIC) against Staphylococcus aureus of 7.81 µM (≈ 14.9 µg/mL).
As to `CC[C@H](C)[C@H](NC(=O)[C@H](C)N)C(=O)NCC(=O)N[C@@H](Cc1cnc[nH]1)C(=O)N[C@@H](CS)C(=O)N[C@@H](CC(C)C)C(=O)NCC(=O)N[C@@H](C)C(=O)N[C@H](C(=O)N[C@@H](CC(C)C)C(=O)O)[C@@H](C)O` [AIGHCLGATL], the MIC in experiment [16] was 8.38 µM; in [17], 8.38 µM; in [18], not below 33.5 µM; in [19] it was 4.19 µM; in experiment [20], 8.38 µM; in experiment [21], 8.38 µM. Moreover, the MIC was 8.38 µM in experiment [22]; 8.38 µM in [23]; not below 33.5 µM in experiment [24]; 4.19 µM in [25]; 8.38 µM in experiment [26]; 8.38 µM in experiment [27]. In addition, the minimum inhibitory concentration (MIC) in experiment [28] and in experiment [29] was not below 33.5 µM throughout.
Turning to `CC[C@H](C)[C@H](NC(=O)[C@H](C)NC(=O)[C@H](CCC(=O)O)NC(=O)[C@H](CO)NC(=O)[C@@H](N)Cc1ccccc1)C(=O)N[C@@H](CCCCN)C(=O)N[C@@H](CCCCN)C(=O)N[C@H](C(=O)N[C@H](C(=O)N[C@@H](CC(=O)O)C(=O)N[C@@H](Cc1ccccc1)C(=O)N[C@@H](CC(C)C)C(=O)NCC(N)=O)[C@@H](C)CC)[C@@H](C)CC` [FSEAIKKIIDFLG], the MIC in [30] is not below 173 µM; in experiment [31], more than 173 µM; in experiment [32] it was not below 173 µM; in experiment [33] it was not below 173 µM; in experiment [34], not below 173 µM; in experiment [2], 173 µM (≈ 256 µg/mL). The MIC in [3] is 86.4 µM (≈ 128 µg/mL); in [35], more than 173 µM; in experiment [36] it was more than 173 µM; in [37], not below 173 µM; in experiment [38], not below 173 µM.
